In patent US20250179059A1 (The Regents of the University of California, priority 2021, published 2025):

What was measured:
[1] = target: T1, human BRD4 bromodomain II (Homo sapiens, UniProt O60885); test: Bromodomain binding assay (AlphaScreen), BRD4 BDII; conditions: AlphaScreen assay, Table C2; read-out: BRD4 BDII IC50
T1 construct: human BRD4 bromodomain II [based on Genbank NM_058243, residues 349-460]; host or cells: E. coli
Procedure, shortened: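 AlphaScreen competition: His6-BRD4 BDI (aa 44-170) or BDII (aa 349-460) vs biotin-H4(1-21) K5/K8/K12/K16Ac peptide; Ni-chelate acceptor/streptavidin donor beads. HEPES pH 7.5, NaCl, CHAPS, BSA, 1% DMSO; RT. 10-pt 3-fold titration, % peptide binding fitted → IC50.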

[2] = system: human SKM-1 acute myeloid leukemia cells; test: SKM-1 antiproliferation cell-based assay (ATPlite); conditions: Homo sapiens, SKM-1, 96 h, SKM-1 antiproliferation assay, 4 days, Table C2
Procedure, shortened: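 Log-phase cells in RPMI 1640/15% FBS were seeded at 34722 cells/mL and exposed for 4 days to nine-concentration DMSO serial dilutions in triplicate. Viability was read as ATP luminescence (ATPlite 1step), and IC50 values came from variable-slope non-linear regression.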

IC50 [1] [nM] | GI50 [2] [nM] | SMILES
0.01 to 1 | 0.3 to 30 | Cn1ccn(-c2ccc(-c3cc(F)cc(-c4ccnc(N5CCN(CC6CCC6)CC5)c4)c3O)cc2Cl)c1=O [Example 646, 1-(3-chloro-3′-(2-(4-(cyclobutylmethyl)piperazin-1-yl)pyridin-4-yl)-5′-fluoro-2′-hydroxy-[1,1′-biphenyl]-4-yl)-3-methyl-1H-imidazol-2(3H)-one]
0.01 to 1 | 0.3 to 30 | Cn1ccn(-c2ccc(-c3cc(F)cc(-c4ccnc(N5CCN6CCOCC6C5)c4)c3O)cc2Cl)c1=O (stereo not drawn) [Example 647, 1-(3-chloro-5′-fluoro-3′-(2-(hexahydropyrazino[2,1-c][1,4]oxazin-8(1H)-yl)pyridin-4-yl)-2′-hydroxy-[1,1′-biphenyl]-4-yl)-3-methyl-1H-imidazol-2(3H)-one]
0.01 to 1 | 0.3 to 30 | Cn1ccn(-c2ccc(-c3cc(F)cc(-c4ccnc(N5CC6NCCOC6C5)c4)c3O)cc2Cl)c1=O (stereo not drawn) [Example 648, 1-(3-chloro-5′-fluoro-3′-(2-(hexahydropyrrolo[3,4-b][1,4]oxazin-6(2H)-yl)pyridin-4-yl)-2′-hydroxy-[1,1′-biphenyl]-4-yl)-3-methyl-1H-imidazol-2(3H)-one]
1 to 10 | 30 to 300 | CN1CCOC2CN(c3cc(-c4cc(F)cc(-c5ccc(-n6ccn(C)c6=O)c(Cl)c5)c4O)ccn3)CC21 (stereo not drawn) [Example 649, 1-(3-chloro-5′-fluoro-2′-hydroxy-3′-(2-(4-methylhexahydropyrrolo[3,4-b][1,4]oxazin-6(2H)-yl)pyridin-4-yl)-[1,1′-biphenyl]-4-yl)-3-methyl-1H-imidazol-2(3H)-one]
0.01 to 1 | 0.3 to 30 | C[C@@H]1CN(c2cc(-c3cc(F)cc(-c4ccc(-n5ccn(C)c5=O)c(Cl)c4)c3O)cnn2)CCN1 [Example 650, (R)-1-(3-chloro-5′-fluoro-2′-hydroxy-3′-(6-(3-methylpiperazin-1-yl)pyridazin-4-yl)-[1,1′-biphenyl]-4-yl)-3-methyl-1H-imidazol-2(3H)-one]
0.01 to 1 | 30 to 300 | Cn1ccn(-c2ccc(-c3cc(F)cc(-c4ccnc(N5CCN(CC(C)(C)C)CC5)c4)c3O)cc2Cl)c1=O [Example 651, 1-(3-chloro-5′-fluoro-2′-hydroxy-3′-(2-(4-neopentylpiperazin-1-yl)pyridin-4-yl)-[1,1′-biphenyl]-4-yl)-3-methyl-1H-imidazol-2(3H)-one]
0.01 to 1 | 30 to 300 | Cn1ccn(-c2ccc(-c3cc(F)cc(-c4ccnc(N5CCN(CC(C)(C)C#N)CC5)c4)c3O)cc2Cl)c1=O [Example 652, 3-(4-(4-(3′-chloro-5-fluoro-2-hydroxy-4′-(3-methyl-2-oxo-2,3-dihydro-1H-imidazol-1-yl)-[1,1′-biphenyl]-3-yl)pyridin-2-yl)piperazin-1-yl)-2,2-dimethylpropanenitrile]
0.01 to 1 | 300 to 3000 | Cn1ccn(-c2ccc(-c3cc(F)cc(-c4ccnc(N5CCN[C@H](CC(=O)O)C5)c4)c3O)cc2Cl)c1=O [Example 653]
0.01 to 1 | 0.3 to 30 | Cn1ccn(-c2ccc(-c3cc(F)cc(-c4ccnc(C5CCCNC5)c4)c3O)cc2Cl)c1=O (stereo not drawn) [Example 654, 1-(3-chloro-5′-fluoro-2′-hydroxy-3′-(2-(piperidin-3-yl)pyridin-4-yl)-[1,1′-biphenyl]-4-yl)-3-methyl-1H-imidazol-2(3H)-one]
0.01 to 1 | 0.3 to 30 | Cn1ccn(-c2ccc(-c3cc(F)cc(-c4ccnc(N5CC6CCNC6C5)c4)c3O)cc2Cl)c1=O (stereo not drawn) [Example 655, 1-(3-chloro-5′-fluoro-3′-(2-(hexahydropyrrolo[3,4-b]pyrrol-5(1H)-yl)pyridin-4-yl)-2′-hydroxy-[1,1′-biphenyl]-4-yl)-3-methyl-1H-imidazol-2(3H)-one]
0.01 to 1 | 0.3 to 30 | Cn1ccn(-c2ccc(-c3cc(F)cc(-c4ccnc(N5CC6CNC6C5)c4)c3O)cc2Cl)c1=O (stereo not drawn) [Example 656, 1-(3′-(2-(3,6-diazabicyclo[3.2.0]heptan-3-yl)pyridin-4-yl)-3-chloro-5′-fluoro-2′-hydroxy-[1,1′-biphenyl]-4-yl)-3-methyl-1H-imidazol-2(3H)-one]
0.01 to 1 | 0.3 to 30 | Cn1ccn(-c2ccc(-c3cc(F)cc(-c4ccnc(C5=CCCNC5)c4)c3O)cc2Cl)c1=O [Example 657, 1-(3-chloro-5′-fluoro-2′-hydroxy-3′-(1′,2′,5′,6′-tetrahydro-[2,3′-bipyridin]-4-yl)-[1,1′-biphenyl]-4-yl)-3-methyl-1H-imidazol-2(3H)-one]
0.01 to 1 | 0.3 to 30 | CN1CCC2CN(c3cc(-c4cc(F)cc(-c5ccc(-n6ccn(C)c6=O)c(Cl)c5)c4O)ccn3)CC21 (stereo not drawn) [Example 658, 1-(3-chloro-5′-fluoro-2′-hydroxy-3′-(2-(1-methylhexahydropyrrolo[3,4-b]pyrrol-5(1H)-yl)pyridin-4-yl)-[1,1′-biphenyl]-4-yl)-3-methyl-1H-imidazol-2(3H)-one]
0.01 to 1 | 0.3 to 30 | CN1CC2CN(c3cc(-c4cc(F)cc(-c5ccc(-n6ccn(C)c6=O)c(Cl)c5)c4O)ccn3)CC21 (stereo not drawn) [Example 659, 1-(3-chloro-5′-fluoro-2′-hydroxy-3′-(2-(6-methyl-3,6-diazabicyclo[3.2.0]heptan-3-yl)pyridin-4-yl)-[1,1′-biphenyl]-4-yl)-3-methyl-1H-imidazol-2(3H)-one]
0.01 to 1 | 30 to 300 | COCCCn1cc(-c2cc(F)cc(-c3ccc(-n4ccn(C)c4=O)c(Cl)c3)c2O)cc(N2CCN[C@H](C)C2)c1=O [Example 660, (R)-5-(3′-chloro-5-fluoro-2-hydroxy-4′-(3-methyl-2-oxo-2,3-dihydro-1H-imidazol-1-yl)-[1,1′-biphenyl]-3-yl)-1-(3-methoxypropyl)-3-(3-methylpiperazin-1-yl)pyridin-2(1H)-one]
0.01 to 1 | 0.3 to 30 | CC(C)N1CCN(c2cc(-c3cc(F)cc(-c4ccc(-n5ccn(C)c5=O)c(Cl)c4)c3O)cn(C)c2=O)CC1 [Example 661, 5-(3′-chloro-5-fluoro-2-hydroxy-4′-(3-methyl-2-oxo-2,3-dihydro-1H-imidazol-1-yl)-[1,1′-biphenyl]-3-yl)-3-(4-isopropylpiperazin-1-yl)-1-methylpyridin-2(1H)-one]
1 to 10 | 30 to 300 | Cn1ccn(-c2ccc(-c3cc(F)cc(-c4ccnc(N5CCN(C67CC(C6)C7)CC5)c4)c3O)cc2Cl)c1=O [Example 662, 1-(3′-(2-(4-(bicyclo[1.1.1]pentan-1-yl)piperazin-1-yl)pyridin-4-yl)-3-chloro-5′-fluoro-2′-hydroxy-[1,1′-biphenyl]-4-yl)-3-methyl-1H-imidazol-2(3H)-one]
0.01 to 1 | 0.3 to 30 | CC(C)N1CCN(c2cncc(-c3cc(F)cc(-c4ccc(-n5ccn(C)c5=O)c(Cl)c4)c3O)c2)CC1 [Example 663, 1-(3-chloro-5′-fluoro-2′-hydroxy-3′-(5-(4-isopropylpiperazin-1-yl)pyridin-3-yl)-[1,1′-biphenyl]-4-yl)-3-methyl-1H-imidazol-2(3H)-one]
0.01 to 1 | 0.3 to 30 | Cn1ccn(-c2ccc(-c3cc(F)cc(-c4cncc(N5CCN(C(C)(C)C)CC5)c4)c3O)cc2Cl)c1=O [Example 664, 1-(3′-(5-(4-(tert-butyl)piperazin-1-yl)pyridin-3-yl)-3-chloro-5′-fluoro-2′-hydroxy-[1,1′-biphenyl]-4-yl)-3-methyl-1H-imidazol-2(3H)-one]
0.01 to 1 | 30 to 300 | Cn1ccn(-c2ccc(-c3cc(F)cc(-c4ccnc(N5CCNCCC5=O)c4)c3O)cc2Cl)c1=O [Example 665, 4-(4-(3′-chloro-5-fluoro-2-hydroxy-4′-(3-methyl-2-oxo-2,3-dihydro-1H-imidazol-1-yl)-[1,1′-biphenyl]-3-yl)pyridin-2-yl)-1,4-diazepan-5-one]
0.01 to 1 | 0.3 to 30 | COC[C@@H]1CN(c2cc(-c3cc(F)cc(-c4ccc(-n5ccn(C)c5=O)c(Cl)c4)c3O)ccn2)CCN1 [Example 666, (S)-1-(3-chloro-5′-fluoro-2′-hydroxy-3′-(2-(3-(methoxymethyl)piperazin-1-yl)pyridin-4-yl)-[1,1′-biphenyl]-4-yl)-3-methyl-1H-imidazol-2(3H)-one]
0.01 to 1 | 0.3 to 30 | CC(C)[C@@H]1CN(c2cc(-c3cc(F)cc(-c4ccc(-n5ccn(C)c5=O)c(Cl)c4)c3O)ccn2)CCN1 [Example 667, (R)-1-(3-chloro-5′-fluoro-2′-hydroxy-3′-(2-(3-isopropylpiperazin-1-yl)pyridin-4-yl)-[1,1′-biphenyl]-4-yl)-3-methyl-1H-imidazol-2(3H)-one]
0.01 to 1 | 0.3 to 30 | Cn1cc(-c2cc(F)cc(-c3ccc(-n4ccn(C)c4=O)c(Cl)c3)c2O)cc(N2CCN(C(C)(C)C)CC2)c1=O [Example 668, 3-(4-(tert-butyl)piperazin-1-yl)-5-(3′-chloro-5-fluoro-2-hydroxy-4′-(3-methyl-2-oxo-2,3-dihydro-1H-imidazol-1-yl)-[1,1′-biphenyl]-3-yl)-1-methylpyridin-2(1H)-one]
0.01 to 1 | 30 to 300 | C#CCN1CCN(c2cc(-c3cc(F)cc(-c4ccc(-n5ccn(C)c5=O)c(Cl)c4)c3O)ccn2)CC1 [Example 669, 1-(3-chloro-5′-fluoro-2′-hydroxy-3′-(2-(4-(prop-2-yn-1-yl)piperazin-1-yl)pyridin-4-yl)-[1,1′-biphenyl]-4-yl)-3-methyl-1H-imidazol-2(3H)-one]
